Results on 21 compounds are retold here after patent US20090012103A1, “SUBSTITUTED HETEROCYCLIC COMPOUNDS” (priority 2007, published 2009).

Assay [1] deals with T1, wild-type human cardiac sodium channel, hNav1.5 (Homo sapiens, UniProt Q14524). As to the kind of experiment: Peak INa screening assay (tonic block TB and use-dependent block UDB of peak sodium current). In kind it is cell-based. As to conditions: compound at 10 μM. The method, then: The late sodium current (Late INa) and peak sodium current (Peak INa) assays are performed on an automated electrophysiology platform, PatchXpress 7000A (MDS Analytical Technologies, Sunnyvale, Calif.), which uses the whole cell patch clamp technique to measure currents through the cell membrane of up to 16 cells at a time. The assay uses an HEK293 (human embryonic kidney) cell line heterologously expressing the wild-type human cardiac sodium channel, hNav1.5, purchased from Millipore (Billerica, Mass.). No beta subunits were coexpressed with the Na channel alpha subunit. […] Experiments are carried out at 24-27° C.
For both the Late INa and Peak INa assays, series resistance compensation is set to 50% and whole-cell compensation is performed automatically. […] Currents through open sodium channels are automatically recorded and stored in the DataXpress2 database (MDS Analytical Technologies, Sunnyvale, Calif.). Analysis is performed using DataXpress2 analysis software and data are compiled in Excel.
Compound stocks are routinely made in glass vials to 10 mM in dimethyl sulfoxide (DMSO). In some cases, when compounds are not soluble in DMSO, they are made in 100% ethanol. Stocks are sonicated as necessary. The extracellular solution for screening Late INa is composed of: 140 mM NaCl, 4 mM KCl, 1.8 mM CaCl2, 0.75 mM MgCl2, and 5 mM HEPES with pH adjusted to 7.4 using NaOH. The extracellular solution for screening Peak INa is composed of: 20 mM NaCl, 120 mM N-methyl-D glucamine, 4 mM KCl, 1.8 mM CaCl2, 0.75 mM MgCl2, and 5 mM HEPES with pH adjusted to 7.4 using HCl. The intracellular solution used to perfuse the inside of the cells for both the Late INa and Peak INa assays contains: 120 mM CsF, 20 mM CsCl, 5 mM EGTA, 5 mM HEPES and pH adjusted to 7.4 with CsOH. Compounds are diluted in extracellular solution to 10 μM in glass vials and then transferred to glass well plates before robotic addition to the cells. The 0 Na extracellular solution used at the end of each experiment for the Late INa and Peak INa assays to measure baseline current contains: 140 mM N-methyl-D-glucamine; 4 mM KCl; 1.8 mM CaCl2; 0.75 mM MgCl2; 5 mM HEPES and pH was adjusted to 7.4 with HCl.
Compounds were also evaluated for their effect in several other assays, including their effect on Peak INa. In some cases, the effect on Peak INa was measured using data from the Late INa assay. […] Since the peak INa can be very large, introducing artifacts in the recording, the concentration of Na^+ in the bath is reduced to 20 mM and a nonpermeant cation is added to compensate for the Na^+ that was omitted from the standard extracellular solution (see above). The peak INa assay uses a holding potential of −100 mV and a 20 ms test pulse to 0 mV to activate the channel. As in the Late INa assay, stepping the voltage to 0 mV causes a rapid increase in negative Na current through hNav1.5 that inactivates within a few ms. No late INa activator is added for the peak assay.
For the separate peak INa assay, both tonic (TB) block and use-dependent (UDB) block of peak inward sodium current by 10 μM compound are determined. TB is block of the channel in the resting state, before the channel opens. TB is simulated in this assay by stimulating the channel to open at a low frequency (0.1 Hz). This is done in order to measure the control current amplitude and monitor current rundown, enabling correction for rundown in the calculation of percent block for TB.

Assay [2] concerns the target T1, wild-type human cardiac sodium channel, hNav1.5. As to the kind of experiment: Late INa screening assay (late sodium current, PatchXpress whole cell patch clamp). In kind it is cell-based. Particulars: compound at 10 μM; read-out: Late INa % blk.
The mark [3] stands for this setting: tonic block, read-out: Tonic Peak INa % blk.
Where [4] appears, read: use-dependent block, read-out: UDB Peak INa % blk.

T1 sequence (Q14524 whole entry): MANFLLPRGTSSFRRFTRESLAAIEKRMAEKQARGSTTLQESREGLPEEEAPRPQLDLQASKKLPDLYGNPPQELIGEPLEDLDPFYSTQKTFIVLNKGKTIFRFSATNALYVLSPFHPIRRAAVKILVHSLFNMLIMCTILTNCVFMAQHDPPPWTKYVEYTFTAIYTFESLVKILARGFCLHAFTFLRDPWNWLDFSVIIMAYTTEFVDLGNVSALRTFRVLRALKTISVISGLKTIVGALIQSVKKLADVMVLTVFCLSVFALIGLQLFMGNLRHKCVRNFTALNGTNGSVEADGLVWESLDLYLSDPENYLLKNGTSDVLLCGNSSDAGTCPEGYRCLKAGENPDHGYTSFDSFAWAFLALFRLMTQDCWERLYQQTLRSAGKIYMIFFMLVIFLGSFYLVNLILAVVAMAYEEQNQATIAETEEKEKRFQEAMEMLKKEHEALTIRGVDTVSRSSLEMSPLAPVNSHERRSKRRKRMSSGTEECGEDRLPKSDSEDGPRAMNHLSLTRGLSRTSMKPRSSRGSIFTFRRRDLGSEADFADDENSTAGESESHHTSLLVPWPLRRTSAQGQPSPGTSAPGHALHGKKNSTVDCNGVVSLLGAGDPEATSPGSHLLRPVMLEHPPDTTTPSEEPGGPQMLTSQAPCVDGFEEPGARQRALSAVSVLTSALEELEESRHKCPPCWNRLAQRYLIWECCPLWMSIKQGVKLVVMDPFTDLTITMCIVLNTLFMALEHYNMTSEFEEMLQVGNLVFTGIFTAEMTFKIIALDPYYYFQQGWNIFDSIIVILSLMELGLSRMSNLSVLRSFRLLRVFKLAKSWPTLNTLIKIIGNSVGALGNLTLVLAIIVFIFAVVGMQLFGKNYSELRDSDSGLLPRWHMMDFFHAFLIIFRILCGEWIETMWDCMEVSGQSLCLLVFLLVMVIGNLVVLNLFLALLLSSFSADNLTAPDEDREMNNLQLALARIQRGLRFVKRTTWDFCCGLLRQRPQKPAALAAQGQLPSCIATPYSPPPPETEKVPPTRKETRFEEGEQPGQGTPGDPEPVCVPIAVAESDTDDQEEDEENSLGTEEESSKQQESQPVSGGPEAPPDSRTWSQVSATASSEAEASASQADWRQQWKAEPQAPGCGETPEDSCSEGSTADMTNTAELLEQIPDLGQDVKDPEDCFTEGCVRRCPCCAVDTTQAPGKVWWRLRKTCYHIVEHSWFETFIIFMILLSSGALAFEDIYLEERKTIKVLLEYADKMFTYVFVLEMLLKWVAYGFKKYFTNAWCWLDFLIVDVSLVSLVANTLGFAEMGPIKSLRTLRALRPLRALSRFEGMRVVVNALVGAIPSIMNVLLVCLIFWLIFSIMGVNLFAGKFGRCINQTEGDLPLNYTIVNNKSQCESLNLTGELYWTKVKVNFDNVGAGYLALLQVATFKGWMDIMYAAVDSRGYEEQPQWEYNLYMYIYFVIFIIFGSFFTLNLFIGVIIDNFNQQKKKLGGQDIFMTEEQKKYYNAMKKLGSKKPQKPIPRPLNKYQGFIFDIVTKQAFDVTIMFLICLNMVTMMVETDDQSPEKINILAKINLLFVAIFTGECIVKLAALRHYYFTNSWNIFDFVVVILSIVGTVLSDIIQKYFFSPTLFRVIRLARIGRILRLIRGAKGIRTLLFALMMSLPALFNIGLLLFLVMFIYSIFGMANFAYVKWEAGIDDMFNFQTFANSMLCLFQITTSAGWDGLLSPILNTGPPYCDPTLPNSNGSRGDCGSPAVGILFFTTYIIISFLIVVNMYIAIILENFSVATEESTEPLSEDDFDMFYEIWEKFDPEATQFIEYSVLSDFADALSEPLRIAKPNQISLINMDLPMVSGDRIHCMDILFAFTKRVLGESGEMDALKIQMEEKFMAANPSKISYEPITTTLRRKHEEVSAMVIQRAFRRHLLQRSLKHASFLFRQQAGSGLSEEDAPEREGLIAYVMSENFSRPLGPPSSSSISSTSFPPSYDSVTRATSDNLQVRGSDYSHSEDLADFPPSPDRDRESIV

For the compound `CC1=C(C(=O)OCc2ccccc2)C(c2ccc(N(C)C)c3ccccc23)c2cn[nH]c2N1` (stereo not drawn) [PT-332, benzyl 4-(4-(dimethylamino)naphthalen-1-yl)-6-methyl-4,7-dihydro-1H-pyrazolo[3,4-b]pyridine-5-carboxylate], the figures for the inhibition at 10 µM in assay [1] (setting [3]), in assay [1] (setting [4]) and in assay [2] were 11.3%, 2.7% and 20%, respectively.
For `CCOC(=O)C1=C(C)Nc2nnnn2C1c1c(Br)sc2ccccc12` (stereo not drawn) [PT-489, ethyl 7-(2-bromobenzo[b]thiophen-3-yl)-5-methyl-4,7-dihydrotetrazolo[1,5-a]pyrimidine-6-carboxylate], in that order: 46.2%, 29.2% and 80.7%.
For the compound `CCOC(=O)C1=C(C)Nc2nnnn2C1c1cccc(Oc2cccc(C(=O)OCC)c2)c1` (stereo not drawn) [PT-494, ethyl 7-(3-(3-(ethoxycarbonyl)phenoxy)phenyl)-5-methyl-4,7-dihydrotetrazolo[1,5-a]pyrimidine-6-carboxylate], the inhibition at 10 µM in assay [1] (setting [3]) worked out at 6.7%; in assay [1] (setting [4]), 2%; in assay [2] it was 71.8%.
For `CC1=C(C(=O)OCC(F)(F)F)C(c2cccc3ccccc23)n2nnnc2N1` (stereo not drawn) [PT-014, 2,2,2-trifluoroethyl 5-methyl-7-(naphthalen-1-yl)-4,7-dihydrotetrazolo[1,5-a]pyrimidine-6-carboxylate], the inhibition at 10 µM was found to be 9% in assay [1] (setting [3]) and 50.9% in assay [2].
`CC1=C(C(=O)NCCCCc2ccccc2)C(c2ccsc2)C2=C(CCCC2=O)N1` (stereo not drawn) [PT-164, 2-methyl-5-oxo-N-(4-phenylbutyl)-4-(thiophen-3-yl)-1,4,5,6,7,8-hexahydroquinoline-3-carboxamide]: the figures for the inhibition at 10 µM in assay [1] (setting [3]) and in assay [2] were 10.2% and 32%, respectively.
In the case of `CCOC(=O)C1=C(C)NC(C)=C(C(=O)OCC)C1c1ccccc1-c1ccc(NS(C)(=O)=O)cc1` [PT-428, diethyl 2,6-dimethyl-4-(4′-(methylsulfonamido)biphenyl-2-yl)-1,4-dihydropyridine-3,5-dicarboxylate], the inhibition at 10 µM in assay [1] (setting [3]) came to 5.3%; in assay [1] (setting [4]), 1%; in assay [2], 45.1%.
For `CC1=C(C(=O)OCc2ccccc2)C(c2cc(C)c(C)s2)n2nnnc2N1` (stereo not drawn) [PT-414, benzyl 7-(4,5-dimethylthiophen-2-yl)-5-methyl-4,7-dihydrotetrazolo[1,5-a]pyrimidine-6-carboxylate], the inhibition at 10 µM turned out to be 21.6% in assay [1] (setting [3]) and 78% in assay [2].
On to `CCOC(=O)[C@@H]1CCCN(c2cc(OC)ccc2C2C(C(=O)OCc3ccccc3)=C(C)Nc3[nH]ncc32)C1` (stereo partly drawn) [PT-327, benzyl 4-(2-((R)-3-(ethoxycarbonyl)piperidin-1-yl)-4-methoxyphenyl)-6-methyl-4,7-dihydro-1H-pyrazolo[3,4-b]pyridine-5-carboxylate], for which the inhibition at 10 µM was found to be 18.5% in assay [1] (setting [3]), 9.4% in assay [1] (setting [4]) and 35.3% in assay [2].
For `CC1=C(C(=O)OCc2ccccc2)C(c2occc2-c2ccccc2)n2nnnc2N1` (stereo not drawn) [PT-351, benzyl 5-methyl-7-(3-phenylfuran-2-yl)-4,7-dihydrotetrazolo[1,5-a]pyrimidine-6-carboxylate], the values for the inhibition at 10 µM in assay [1] (setting [3]) and in assay [2] were 49.9% and 81.6%, respectively.
On to `CC1=C(C(=O)OC(C)C)C(c2c[nH]nc2-c2cccs2)C2=C(CC(C)(C)CC2=O)N1` (stereo not drawn) [PT-162, isopropyl 2,7,7-trimethyl-5-oxo-4-(3-(thiophen-2-yl)-1H-pyrazol-4-yl)-1,4,5,6,7,8-hexahydroquinoline-3-carboxylate], for which the inhibition at 10 µM in assay [1] (setting [3]) was 1.1%; in assay [2], -0.2%.
Consider `CCOC(=O)[C@@H]1CCCN(c2cc(OC)ccc2C2C(C(=O)OCc3ccccc3)=C(C)Nc3nnnn32)C1` (stereo partly drawn) [PT-373, benzyl 7-(2-((R)-3-(ethoxycarbonyl)piperidin-1-yl)-4-methoxyphenyl)-5-methyl-4,7-dihydrotetrazolo[1,5-a]pyrimidine-6-carboxylate], for which the inhibition at 10 µM was found to be 22.5% in assay [1] (setting [3]) and 64.9% in assay [2].
Regarding `CCOC(=O)C1=C(C)Nc2nnnn2C1c1cccc(OCc2cccc(C(=O)OC)c2)c1` (stereo not drawn) [PT-495, ethyl 7-(3-(3-(methoxycarbonyl)benzyloxy)phenyl)-5-methyl-4,7-dihydrotetrazolo[1,5-a]pyrimidine-6-carboxylate], the inhibition at 10 µM worked out at 20.7% in assay [1] (setting [3]), 11.6% in assay [1] (setting [4]) and 54.2% in assay [2].
As for `CC1=C(C(=O)O[C@@H](C)c2ccccc2)C(c2cccc3ccccc23)n2nnnc2N1` (stereo partly drawn) [PT-048, (S)-1-phenylethyl 5-methyl-7-(naphthalen-1-yl)-4,7-dihydrotetrazolo[1,5-a]pyrimidine-6-carboxylate], the inhibition at 10 µM is 58.6% in assay [1] (setting [3]) and 90.8% in assay [2].
For `CC1=C(C(=O)O[C@@H](C)c2ccccc2)C(c2c3ccccc3cc3ccccc23)n2nnnc2N1` (stereo partly drawn) [PT-055, (S)-1-phenylethyl 7-(anthracen-9-yl)-5-methyl-4,7-dihydrotetrazolo[1,5-a]pyrimidine-6-carboxylate], in that order: 7.6% and 56.3%.
For `CC1=C(C(=O)OCc2ccccc2)C(c2sccc2-c2ccccc2)n2nnnc2N1` (stereo not drawn) [PT-352, benzyl 5-methyl-7-(3-phenylthiophen-2-yl)-4,7-dihydrotetrazolo[1,5-a]pyrimidine-6-carboxylate], in that order: 17.7% and 76.3%.
For the compound `CC1=C(C(=O)OC(c2ccc(F)cc2)c2ccc(F)cc2)C(c2cccs2)n2nnnc2N1` (stereo not drawn) [PT-423, bis(4-fluorophenyl)methyl 5-methyl-7-(thiophen-2-yl)-4,7-dihydrotetrazolo[1,5-a]pyrimidine-6-carboxylate], the inhibition at 10 µM in assay [1] (setting [3]) came to 18.5%; in assay [1] (setting [4]), 20.4%; in assay [2] it was 67.2%.
For `CCOC(=O)C1=C(C)Nc2nnnn2C1c1cccc(OCc2ccc(C(=O)OCC)cc2)c1` (stereo not drawn) [PT-497, ethyl 7-(3-(4-(ethoxycarbonyl)benzyloxy)phenyl)-5-methyl-4,7-dihydrotetrazolo[1,5-a]pyrimidine-6-carboxylate], in that order: 22.2%, 15.4% and 59%.
For `CC1=C(C(=O)OC(C)C)C(c2c(Br)sc3ccccc23)n2nnnc2N1` (stereo not drawn) [PT-506, isopropyl 7-(2-bromobenzo[b]thiophen-3-yl)-5-methyl-4,7-dihydrotetrazolo[1,5-a]pyrimidine-6-carboxylate], in that order: 48.8%, 23% and 81.4%.
As to `CCOC(=O)C1=C(C)Nc2nnnn2C1c1ccccc1I` (stereo not drawn) [PT-492, ethyl 7-(2-iodophenyl)-5-methyl-4,7-dihydrotetrazolo[1,5-a]pyrimidine-6-carboxylate], the figures for the inhibition at 10 µM in assay [1] (setting [3]) and in assay [2] were 0.3% and 39.3%, respectively.
Consider `CCOC(=O)C1=C(C)NC2=C(C(=O)CCC2)C1c1ccc(C)c2ccccc12` (stereo not drawn) [PT-135, ethyl 2-methyl-4-(4-methylnaphthalen-1-yl)-5-oxo-1,4,5,6,7,8-hexahydroquinoline-3-carboxylate], for which the inhibition at 10 µM in assay [1] (setting [3]) came out at 9.6%; in assay [2], 59.9%.
For `CC1=C(C(=O)OCc2ccccc2)C(c2ccccc2OCCN(C)C)n2nnnc2N1` (stereo not drawn) [PT-374, benzyl 7-(2-(2-(dimethylamino)ethoxy)phenyl)-5-methyl-4,7-dihydrotetrazolo[1,5-a]pyrimidine-6-carboxylate], in that order: 38.7% and 66.3%.
